SMILES strings stand for the structures.

The subject of assay [1] is beagles. The assay is described as follows: Experiments on solution of obesity (body weight change in obese beagles). Type of assay: in vivo. As to conditions: beagles made obese by 2 months of high-energy foods; feed with 23.4 g corn starch replaced with β-CD; about 275 kcal per metabolic body weight per day (FIG. 2). From the text:
Ten beagles were fed high-energy foods for 2 months before the experiment, so that they became obese. At the beginning of the experiment, they were divided in […] so as to make uniform the average body weight of each group as much as possible. The feed used in the reference group was the same as that of Experiment 1 and the same feed in which 23.4 g of corn starch was replaced with β-CD was used in the β-CD group. The feeding amount for one dog, per day was controlled without changing the ratio of components so that the amount of the basic feed (Hills c/d Dry and lard) is about 275 kcal per metabolic body weight (kg0.75).

Assay [2] relates to beagles. The assay is described as follows: Experiments on suppression of obesity (body weight change, high-fat feed). In kind it is in vivo. Conditions: healthy beagles; Hills c/d Dry 200 g + lard 117 g basic feed, corn starch replaced with 23.4 g β-CD; about 400 kcal per metabolic body weight per day; vs reference group (FIG. 1). Here is the method: Ten healthy beagles were divided in 2 groups consisting of 5, respectively. Hills c/d Dry were fed for 1 week before the experiment. As for feeds in this experiment, the one in which 200 g of Hills c/d Dry blended with 117 g of lard was used as a basic feed. In the reference group, the one in which 34 g of cornstarch was added to the above basic feed is used. In the experimental group, the feed used is the same one as used in the reference group except that all corn starch was replaced with 23.4 g of β-CD (β-cyclodextrin). The feeding amount for one dog, per day, was controlled without changing the ratio of components so that the amount of the basic feed (Hills c/d Dry and lard) is about 400 kcal per metabolic body weight (kg0.75)

For `OC[C@H]1O[C@@H]2O[C@H]3[C@H](O)[C@@H](O)[C@@H](O[C@H]4[C@H](O)[C@@H](O)[C@@H](O[C@H]5[C@H](O)[C@@H](O)[C@@H](O[C@H]6[C@H](O)[C@@H](O)[C@@H](O[C@H]7[C@H](O)[C@@H](O)[C@@H](O[C@H]8[C@H](O)[C@@H](O)[C@@H](O[C@H]1[C@H](O)[C@H]2O)O[C@@H]8CO)O[C@@H]7CO)O[C@@H]6CO)O[C@@H]5CO)O[C@@H]4CO)O[C@@H]3CO` [β-CD, β-cyclodextrin], in the assay with beagles [1], the body weight result was “significantly reduced”. Moreover, the “increase of body weight” value in the assay on beagles [2] is “significantly suppressed”.
